Data from patent publication US8192962B2, “Processes for detecting toxic substances” (Daikin Industries, Ltd., priority 2001, dated 2012).

System: Transport facilitation protein genes
Assay: DNA chip mRNA expression in yeast, transport facilitation protein genes (Table 5)
Format: cell-based, Saccharomyces cerevisiae S288C
Summary of the method: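 S. cerevisiae S288C grown at 25° C in YPD were exposed in log phase for two hours to one toxic chemical at a growth-inhibiting, non-lethal concentration; untreated cells served as control. Poly(A) mRNA was reverse-transcribed with Cy3/Cy5-dUTP and hybridized to a whole-genome yeast DNA chip at 65° C for over 12 hours; values are fluorescence ratios versus untreated.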

manganese ethylenebis(dithiocarbamate) [(8)]
The level of expressed mRNA in the presence of chemical substance/The level of expressed mRNA in the absence of chemical substance (yeast gene YGR224W): 0.6
The level of expressed mRNA in the presence of chemical substance/The level of expressed mRNA in the absence of chemical substance (yeast gene YGR260W): 0.5
The level of expressed mRNA in the presence of chemical substance/The level of expressed mRNA in the absence of chemical substance (yeast gene YGR281W): 0.7
The level of expressed mRNA in the presence of chemical substance/The level of expressed mRNA in the absence of chemical substance (yeast gene YHL035C): 1.1
The level of expressed mRNA in the presence of chemical substance/The level of expressed mRNA in the absence of chemical substance (yeast gene YHL040C): 1.5
The level of expressed mRNA in the presence of chemical substance/The level of expressed mRNA in the absence of chemical substance (yeast gene YHL047C): 1.5
The level of expressed mRNA in the presence of chemical substance/The level of expressed mRNA in the absence of chemical substance (yeast gene YHR026W): 1.6
The level of expressed mRNA in the presence of chemical substance/The level of expressed mRNA in the absence of chemical substance (yeast gene YHR092C): 1.5
The level of expressed mRNA in the presence of chemical substance/The level of expressed mRNA in the absence of chemical substance (yeast gene YHR094C): 1.2
The level of expressed mRNA in the presence of chemical substance/The level of expressed mRNA in the absence of chemical substance (yeast gene YHR175W): 0.9
The level of expressed mRNA in the presence of chemical substance/The level of expressed mRNA in the absence of chemical substance (yeast gene YIL006W): 0.6
The level of expressed mRNA in the presence of chemical substance/The level of expressed mRNA in the absence of chemical substance (yeast gene YIL022W): 0.8
The level of expressed mRNA in the presence of chemical substance/The level of expressed mRNA in the absence of chemical substance (yeast gene YIL056W): 0.7
The level of expressed mRNA in the presence of chemical substance/The level of expressed mRNA in the absence of chemical substance (yeast gene YIL088C): 0.8
The level of expressed mRNA in the presence of chemical substance/The level of expressed mRNA in the absence of chemical substance (yeast gene YJL034W): 1.5
The level of expressed mRNA in the presence of chemical substance/The level of expressed mRNA in the absence of chemical substance (yeast gene YJL212C): 0.7
The level of expressed mRNA in the presence of chemical substance/The level of expressed mRNA in the absence of chemical substance (yeast gene YJL219W): 1.5
The level of expressed mRNA in the presence of chemical substance/The level of expressed mRNA in the absence of chemical substance (yeast gene YJR077C): 0.8
The level of expressed mRNA in the presence of chemical substance/The level of expressed mRNA in the absence of chemical substance (yeast gene YJR106W): 0.9
The level of expressed mRNA in the presence of chemical substance/The level of expressed mRNA in the absence of chemical substance (yeast gene YJR121W): 0.7
The level of expressed mRNA in the presence of chemical substance/The level of expressed mRNA in the absence of chemical substance (yeast gene YKL016C): 1.6
The level of expressed mRNA in the presence of chemical substance/The level of expressed mRNA in the absence of chemical substance (yeast gene YKL146W): 0.8
The level of expressed mRNA in the presence of chemical substance/The level of expressed mRNA in the absence of chemical substance (yeast gene YKR039W): 1.0
The level of expressed mRNA in the presence of chemical substance/The level of expressed mRNA in the absence of chemical substance (yeast gene YKR067W): 0.8
The level of expressed mRNA in the presence of chemical substance/The level of expressed mRNA in the absence of chemical substance (yeast gene YLL028W): 0.7
The level of expressed mRNA in the presence of chemical substance/The level of expressed mRNA in the absence of chemical substance (yeast gene YLR081W): 0.9
The level of expressed mRNA in the presence of chemical substance/The level of expressed mRNA in the absence of chemical substance (yeast gene YLR295C): 1.2
The level of expressed mRNA in the presence of chemical substance/The level of expressed mRNA in the absence of chemical substance (yeast gene YLR348C): 0.9
The level of expressed mRNA in the presence of chemical substance/The level of expressed mRNA in the absence of chemical substance (yeast gene YLR378C): 0.5
The level of expressed mRNA in the presence of chemical substance/The level of expressed mRNA in the absence of chemical substance (yeast gene YMR011W): 1.1
The level of expressed mRNA in the presence of chemical substance/The level of expressed mRNA in the absence of chemical substance (yeast gene YMR162C): 0.8
The level of expressed mRNA in the presence of chemical substance/The level of expressed mRNA in the absence of chemical substance (yeast gene YMR203W): 0.7
The level of expressed mRNA in the presence of chemical substance/The level of expressed mRNA in the absence of chemical substance (yeast gene YNL055C): 0.7
The level of expressed mRNA in the presence of chemical substance/The level of expressed mRNA in the absence of chemical substance (yeast gene YNL259C): 1.5
The level of expressed mRNA in the presence of chemical substance/The level of expressed mRNA in the absence of chemical substance (yeast gene YNR072W): 0.9
The level of expressed mRNA in the presence of chemical substance/The level of expressed mRNA in the absence of chemical substance (yeast gene YOL119C): 2.0
The level of expressed mRNA in the presence of chemical substance/The level of expressed mRNA in the absence of chemical substance (yeast gene YOL156W): 1.0
The level of expressed mRNA in the presence of chemical substance/The level of expressed mRNA in the absence of chemical substance (yeast gene YOL163W): 1.1
The level of expressed mRNA in the presence of chemical substance/The level of expressed mRNA in the absence of chemical substance (yeast gene YOR035C): 1.0
The level of expressed mRNA in the presence of chemical substance/The level of expressed mRNA in the absence of chemical substance (yeast gene YOR130C): 0.8
The level of expressed mRNA in the presence of chemical substance/The level of expressed mRNA in the absence of chemical substance (yeast gene YOR153W): 0.5
The level of expressed mRNA in the presence of chemical substance/The level of expressed mRNA in the absence of chemical substance (yeast gene YOR273C): 0.6
The level of expressed mRNA in the presence of chemical substance/The level of expressed mRNA in the absence of chemical substance (yeast gene YOR316C): 0.8
The level of expressed mRNA in the presence of chemical substance/The level of expressed mRNA in the absence of chemical substance (yeast gene YOR332W): 1.5
The level of expressed mRNA in the presence of chemical substance/The level of expressed mRNA in the absence of chemical substance (yeast gene YOR348C): 0.8
The level of expressed mRNA in the presence of chemical substance/The level of expressed mRNA in the absence of chemical substance (yeast gene YPL036W): 0.5
The level of expressed mRNA in the presence of chemical substance/The level of expressed mRNA in the absence of chemical substance (yeast gene YPL134C): 1.3
The level of expressed mRNA in the presence of chemical substance/The level of expressed mRNA in the absence of chemical substance (yeast gene YPL271W): 0.9
The level of expressed mRNA in the presence of chemical substance/The level of expressed mRNA in the absence of chemical substance (yeast gene YPR192W): 0.6
The level of expressed mRNA in the presence of chemical substance/The level of expressed mRNA in the absence of chemical substance (yeast gene YPR194C): 1.0
